Laboratory results published in patent publication US20230255953A1, “USE OF ROLUPERIDONE IN PREVENTING RELAPSE IN SCHIZOPHRENIA PATIENTS” (Minerva Neurosciences, Inc., priority 2022, published 2023).

Experiments:
[1] = tested on: patients with negative symptoms of schizophrenia; assay: Study #2 (MIN-101C07): CGI-S and CGI-I; format: in vivo, human; conditions: Week 12 DB, ITT
Protocol: The CGI-S is a clinician-rated scale that is designed to rate the severity of the patient's illness at the time of assessment, including knowledge of the patient's history, psychosocial circumstances, symptoms, behavior, and the impact of the symptoms on the patient's ability to function relative to the clinician's past experience with patients who have the same diagnosis and similar improvement with treatment. Considering total clinical experience, a patient is assessed on severity of mental illness at the time of rating, where 1=normal (not at all ill); 2=borderline mentally ill; 3=mildly ill; 4=moderately ill; 5=markedly ill; 6=severely ill; or 7=extremely ill.
The CGI-S and CGI-I were assessed at the timepoints described in Table 7. The CGI-S and CGI-I were exploratory endpoints in Studies MIN-101C03 and MIN-101C07.
Study #2 (also referred to as “MIN101C07”) was a Phase 3, randomized, DB, placebo-controlled, parallel-group 12-week study to evaluate the efficacy and safety of Roluperidone in patients ≥18 years to ≤55 years with negative symptoms of schizophrenia, followed by a 40-week OL extension. The study consisted of a pretreatment screening period of up to 28 days (including an antipsychotic medication washout period), a 12-week, DB, placebo-controlled period, and a 40-week OL period. Eligible patients (with moderate to severe negative symptoms of schizophrenia and stable positive symptoms but without severe symptoms of suspiciousness, agitation, hostility, uncooperativeness, or poor impulse control) were randomized 1:1:1 to receive Roluperidone 32 mg QD, Roluperidone 64 mg QD (GR01/B formulation, see U.S. Pat. No. 11,464,744), or placebo, orally, for 12 weeks. […] During the 40-week OL treatment extension, patients who were initially randomized to Roluperidone 32 mg or 64 mg continued treatment with the same dose, while patients who were initially randomized to placebo crossed over to Roluperidone 32 mg or 64 mg in a 1:1 ratio.

[2] = target: sigma2 (Homo sapiens, UniProt Q5BJF2); conditions: background statement; cited from earlier work
[3] = target: T1, α1A-adrenergic (Homo sapiens, UniProt P35348); conditions: background statement; cited from earlier work
T1 sequence (P35348 1-466): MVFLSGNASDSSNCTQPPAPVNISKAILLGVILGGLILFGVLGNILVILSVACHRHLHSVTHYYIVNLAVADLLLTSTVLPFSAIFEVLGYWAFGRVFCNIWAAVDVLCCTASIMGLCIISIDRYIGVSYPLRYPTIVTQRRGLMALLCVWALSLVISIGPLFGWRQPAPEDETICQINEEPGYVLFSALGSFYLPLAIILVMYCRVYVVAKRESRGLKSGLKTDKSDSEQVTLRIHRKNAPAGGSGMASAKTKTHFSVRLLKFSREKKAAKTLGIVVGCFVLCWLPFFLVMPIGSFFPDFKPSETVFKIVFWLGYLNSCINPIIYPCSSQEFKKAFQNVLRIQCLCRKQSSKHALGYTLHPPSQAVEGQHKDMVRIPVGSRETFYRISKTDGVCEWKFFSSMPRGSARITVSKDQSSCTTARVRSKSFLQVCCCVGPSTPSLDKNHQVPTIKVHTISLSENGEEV

[4] = tested on: muscarinic receptors; conditions: background statement; cited from earlier work

Chain of sigma2 (Q5BJF2 whole entry): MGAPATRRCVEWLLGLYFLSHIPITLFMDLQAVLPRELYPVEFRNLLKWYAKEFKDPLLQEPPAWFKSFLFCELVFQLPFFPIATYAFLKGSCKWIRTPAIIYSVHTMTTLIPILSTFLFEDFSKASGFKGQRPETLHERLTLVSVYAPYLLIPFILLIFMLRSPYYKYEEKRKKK

Substance: 1H-Isoindol-1-one,2-[ [1-[2-(4-fluorophenyl)-2-oxoethyl]-4-piperidinyl]methyl]-2,3-dihydro-, hydrochloride, hydrate (1:1:2) [Roluperidone]
- Change from Baseline LS Mean: Clinical Global Impression of Severity ([1]; 32 mg QD): −0.4
- Clinical Global Impression of Improvement, LS Mean (observed data, MMRM) ([1]; 32 mg QD): 3.4
- Effect Size (Cohen's d) vs Placebo: Clinical Global Impression of Improvement ([1]; 32 mg QD): −0.12
- Effect Size (Cohen's d) vs Placebo: Clinical Global Impression of Severity ([1]; 32 mg QD): 0.12
- Change from Baseline LS Mean: Clinical Global Impression of Severity ([1]; 64 mg QD): −0.5
- Clinical Global Impression of Improvement, LS Mean (observed data, MMRM) ([1]; 64 mg QD): 3.3
- Effect Size (Cohen's d) vs Placebo: Clinical Global Impression of Improvement ([1]; 64 mg QD): 0.02
- Effect Size (Cohen's d) vs Placebo: Clinical Global Impression of Severity ([1]; 64 mg QD): 0.24
- Antagonistic activity [2]: antagonistic activities
- Antagonistic activity [3]: antagonistic activities
- Affinity [4]: very low or no affinity
